Measured values as given in paper PMC5496853, “Dual activation of neuronal G protein-gated inwardly rectifying potassium (GIRK) channels by cholesterol and alcohol” (Scientific Reports, 2017).

Columns and labels:
GIRK2 [1] = molecular target: T1, GIRK2 (Mus musculus, UniProt P48542); assay: fluorescence (ACMA) K+ flux assay, purified channel reconstituted in liposomes; format: biochemical
T1 construct: gene Kcnj6; amino acids 52-380
T1 sequence (P48542 52-380): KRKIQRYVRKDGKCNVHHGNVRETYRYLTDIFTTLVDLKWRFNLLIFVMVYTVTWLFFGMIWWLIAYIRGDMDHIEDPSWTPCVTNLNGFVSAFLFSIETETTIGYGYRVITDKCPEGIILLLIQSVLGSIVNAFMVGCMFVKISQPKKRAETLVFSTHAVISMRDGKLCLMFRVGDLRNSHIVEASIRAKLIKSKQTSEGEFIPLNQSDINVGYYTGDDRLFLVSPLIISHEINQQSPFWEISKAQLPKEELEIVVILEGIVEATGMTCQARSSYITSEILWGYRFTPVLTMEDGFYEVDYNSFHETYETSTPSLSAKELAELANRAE

GIRK2 [2] = molecular target: T1, GIRK2; assay: fluorescence (ACMA) K+ flux assay, purified channel reconstituted in liposomes with brain PIP2; format: biochemical

Row | SMILES | EC50 (GIRK2 [1]) [µM] | fluorescence (ACMA) K+ flux assay, purified channel reconstituted in liposomes w (GIRK2 [2]) [mM]
1 | CCCCCCCC(=O)OC[C@H](COP(=O)(O)O[C@@H]1[C@H](O)[C@H](O)[C@@H](OP(=O)(O)O)[C@H](OP(=O)(O)O)[C@H]1O)OC(=O)CCCCCCC [diC8-PIP2] | 25.1 ± 3.3 | –
2 | CCO [ethanol] | – | > 20
